Source: patent publication US6869964B2, “Heterocyclicsulfonamide hepatitis C virus inhibitors” (Bristol-Myers Squibb Company, priority 2002, dated 2005)

Assays:
[1] = target: T1, HCV NS3/4A protease complex (BMS strain) (Hepatitis C virus genotype 1a, UniProt P27958, C1454S); test: Recombinant HCV NS3/4A protease complex FRET peptide assay, BMS strain; assay type: biochemical, HCV genotype 1a; settings: NS3/4A BMS Strain, activity range; read-out: IC50 a, b, c (Activity Table)
T1 construct: HCV NS3/4A protease complex (amino acids 1027 to 1711); inferred from pET21b vector and Ni-NTA purification; made in house; host or cells: Escherichia coli BL21 (DE3), pET21b
T1 sequence (P27958 1027-1657 C1454S): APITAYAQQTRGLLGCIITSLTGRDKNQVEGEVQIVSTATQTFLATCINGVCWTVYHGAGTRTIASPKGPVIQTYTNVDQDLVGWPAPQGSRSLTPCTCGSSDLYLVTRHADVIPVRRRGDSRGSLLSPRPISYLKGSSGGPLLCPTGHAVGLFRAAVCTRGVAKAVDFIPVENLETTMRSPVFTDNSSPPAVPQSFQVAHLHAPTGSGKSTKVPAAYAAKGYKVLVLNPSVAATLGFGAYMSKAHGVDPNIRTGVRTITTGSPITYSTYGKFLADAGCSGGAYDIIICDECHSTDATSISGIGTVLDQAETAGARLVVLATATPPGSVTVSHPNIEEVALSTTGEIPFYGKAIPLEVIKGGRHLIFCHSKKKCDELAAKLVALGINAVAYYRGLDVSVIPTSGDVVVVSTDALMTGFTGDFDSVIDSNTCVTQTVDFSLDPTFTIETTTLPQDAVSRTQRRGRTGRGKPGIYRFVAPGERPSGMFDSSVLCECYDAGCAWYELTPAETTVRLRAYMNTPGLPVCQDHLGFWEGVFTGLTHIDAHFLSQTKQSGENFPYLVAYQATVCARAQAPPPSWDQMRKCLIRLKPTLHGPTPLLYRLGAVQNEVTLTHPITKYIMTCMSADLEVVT
T1 sequence (P27958 1658-1711 partner, looked up, stated change not applied): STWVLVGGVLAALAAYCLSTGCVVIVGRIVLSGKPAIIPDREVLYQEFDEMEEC
Excerpt: Recombinant HCV NS3/4A Protease Complex FRET Peptide Assay
The purpose of this in vitro assay was to measure the inhibition of HCV NS3 protease complexes, derived from the BMS, H77C or J4l6S strains, as described below, by compounds of the present invention. This assay provides an indication of how effective compounds of the present invention would be in inhibiting HCV proteolytic activity.
Serum from an HCV-infected patient was obtained from Dr. T. Wright, San Francisco Hospital. An engineered full-length cDNA template of the HCV genome (BMS strain) was constructed from DNA fragments obtained by reverse transcription-PCR (RT-PCR) of serum RNA and using primers selected on the basis of homology between other genotype la strains. From the determination of the entire genome sequence, a genotype la was assigned to the HCV isolate according to the classification of Simmonds et al. (See P Simmonds, K A Rose, S Graham, S W Chan, F McOmish, B C Dow, E A Follett, P L Yap and H Marsden, J. Clin. Microbiol., 31(6), 1493-1503 (1993)). […] The infectious clones, H77C (1a genotype) and J4 L6S (1b genotype) were obtained from R. Purcell (NIH) and the sequences are published in Genbank (AAB67036, see Yanagi, M., Purcell, R. H., Emerson, S. U. and Bukh, J. Proc. Natl. Acad. Sci. U.S.A. 94(16),8738-8743 (1997); AF054247, see Yanagi, M., St Claire, M., Shapiro, M., Emerson, S. U., Purcell, R. H. and Bukh, J, Virology 244 (1), 161-172. (1998)).
The BMS, H77C and J4 L6S strains were used for production of recombinant NS3/4A protease complexes. DNA encoding the recombinant HCV NS3/4A protease complex (amino acids 1027 to 1711) for these strains were manipulated as described by P. Gallinari et al. (see Gallinari P, Paolini C, Brennan D, Nardi C, Steinkuhler C, De Francesco R. Biochemistry. 38(17):5620-32, (1999)). Briefly, a three-lysine solubilizing tail was added at the 3′-end of the NS4A coding region. The cysteine in the P1 position of the NS4A-NS4B cleavage site (amino acid 1711) was changed to a glycine to avoid the proteolytic cleavage of the lysine tag. Furthermore, a cysteine to serine mutation was introduced by PCR at amino acid position 1454 to prevent the autolytic cleavage in the NS3 helicase domain. The variant DNA fragment was cloned in the pET21b bacterial expression vector (Novagen) and the NS3/4A complex was expressed in Escherichia coli strain BL21 (DE3) (Invitrogen) following the protocol described by P. Gallinari et al. (see Gallinari P, Brennan D, Nardi C, Brunetti M, Tomei L, Steinkuhler C, De Francesco R., J Virol. 72(8):6758-69 (1998)) with modifications. Briefly, NS3/4A expression was induced with 0.5 mM Isopropyl β-D-1-thiogalactopyranoside (IPTG) for 22 hr at 20° C. A typical fermentation (10 L) yielded approximately 80 g of wet cell paste. The cells were resuspended in lysis buffer (10 mL/g) consisting of 25 mM N-(2-Hydroxyethyl)Piperazine-N′-(2-Ethane Sulfonic acid) (HEPES), pH7.5, 20% glycerol, 500 mM Sodium Chloride (NaCl), 0.5% Triton-X100, 1 ug/ml lysozyme, 5 mM Magnesium Chloride (MgCl2), 1 ug/ml DnaseI, 5 mM β-Mercaptoethanol (βME), Protease inhibitor—Ethylenediamine Tetraacetic acid (EDTA) free (Roche), homogenized and incubated for 20 mins at 4° C. The homogenate was sonicated and clarified by ultra-centrifugation at 235000 g for lhr at 4° C. Imidazole was added to the supernatant to a final concentration of 15 mM and the pH adjusted to 8.0. The crude protein extract was loaded on a Nickel—Nitrilotriacetic acid (Ni—NTA) column pre-equilibrated with buffer B (25 mM HEPES, pH8.0, 20% glycerol, 500 mM NaCl, 0.5% Triton-X100, 15 mM imidazole, 5 mM βME). The sample was loaded at a flow rate of 1 mL/min. The column was washed with 15 column volumes of buffer C (same as buffer B except with 0.2% Triton-X100). The protein was eluted with 5 column volumes of buffer D (same as buffer C except with 200 mM Imidazole). […]

[2] = system: HCV replicon in Huh7 cells; test: HCV replicon cell-based assay (FRET); set-up: species or system HCV strain 1B; settings: Hepatitis C virus, Huh-7; replicon, activity range; read-out: EC50 a, b, c (Activity Table)
Excerpt: HCV Replicon Cell-based Assay
An HCV replicon whole cell system was established as described by Lohmann V, Korner F, Koch J, Herian U, Theilmann L, Bartenschlager R., Science 285(5424): 110-3 (1999). This system enabled us to evaluate the effects of our HCV Protease compounds on HICV RNA replication. Briefly, using the HCV strain 1B sequence described in the Lohmann paper (Assession number: AJ238799), an HCV cDNA was generated encoding the 5′ internal ribosome entry site (IRES), the neomycin resistance gene, the EMCV (encephalomyocarditis virus)-IRES and the HCV nonstructural proteins, NS3-NS5B, and 3′ non-translated region (NTR). In vitro transcripts of the cDNA were transfected into the human hepatoma cell line, Huh7. […] Resulting cell lines were characterized for positive and negative strand RNA production and protein production over time.
Huh7 cells, constitutively expressing the HCV replicon, were grown in Dulbecco's Modified Eagle Media (DMEM) containing 10% Fetal calf serum (FCS) and 1 mg/ml G418 (Gibco-BRL). Cells were seeded the night before (1.5×10^4 cells/well) in 96-well tissue-culture sterile plates. Compound and no compound controls were prepared in DMEM containing 4% FCS, 1:100 Penicillin/Streptomysin, 1:100 L-glutamine and 5% DMSO in the dilution plate (0.5% DMSO final concentration in the assay). Compound/DMSO mixes were added to the cells and incubated for 4 days at 37° C. After 4 days, plates were rinsed thoroughly with Phosphate-Buffered Saline (PBS) (3 times 150 μl). The cells were lysed with 25 μl of a lysis assay reagent containing the FRET peptide (RET S1, as described for the in vitro enzyme assay). The lysis assay reagent was made from 5× cell Luciferase cell culture lysis reagent(Promega #E153A) diluted to 1× with distilled water, NaCl added to 150 mM final, the FRET peptide diluted to 10 μM final from a 2 mM stock in 100% DMSO. The plate was then placed into the Cytofluor 4000 instrument which had been set to 340 nm excitation/490 emission, automatic mode for 21 cycles and the plate read in a kinetic mode. EC50 determinations were carried out as described for the IC50 determinations.

## C=CC1C[C@]1(NC(=O)[C@@H]1C[C@@H](Oc2cc(-c3ccccc3)nc3cc(OC)ccc23)CN1C(=O)[C@@H](NC(=O)OC(C)(C)C)C(C)(C)C)C(=O)NS(=O)(=O)c1cc(Cl)c(Br)s1 (stereo partly shown) [Compound 6, {-[2-{1-[5-Bromo-4-chlorothiophene-2-sulfonylamino-carbonyl]-2-vinylcyclopropylcarbamoyl}-4-(7-methoxy-2-phenyl-quinolin-4-yloxy)pyrrolidine-1-carbonyl]-2,2-dimethylpropyl}carbarmic acid tert-butyl ester]
[1]
  IC50: < 0.1 µM
[2]
  EC50: 0.1 to 1 µM

## C=CC1C[C@]1(NC(=O)[C@@H]1C[C@@H](Oc2cc(-c3ccccc3)nc3cc(OC)ccc23)CN1C(=O)[C@@H](NC(=O)OC(C)(C)C)C(C)(C)C)C(=O)NS(=O)(=O)c1nc(NC(C)=O)sc1C (stereo partly shown) [Compound 11, {1-[2-{1-[2-Acetylamino-5-methylthiazole-4-sulfonylaminocarbonyl]-2-vinylcyclopropylcarbamoyl}-4-(7-methoxy-2-phenyl-quinolin-4-yloxy)pyrrolidine-1-carbony]-2,2-dimethylpropyl}carbamic acid tert-butyl ester]
[1]
  IC50: < 0.1 µM
[2]
  EC50: 1 to 10 µM
